Assay results published in patent US9597337B2, “Berberine-ursodeoxycholic acid conjugate for treating the liver” (NORTH AMERICAN BIOMEDICAL RESEARCH CENTER USA, INC., priority 2014, dated 2017).
Where two headings read alike, the source gives them in different places.

Assays:
KMCH cells [1] = experiment: Western blot analysis of signaling and apoptosis proteins in KMCH cells; assay type: cell-based; conditions: for cytochrome C release from mitochondria, western blot: berberine at same concentration as NABR01
Procedure: FIGS. 6-18 is data which illustrates the mechanism of action for NABR01. Once a mechanism of action is known, it may become possible to predict with some level of accuracy the effects a drug may have, though extensive testing would still be required. Until a mechanism is known, it is extremely difficult to predict what a particular molecule or compound may be useful for, if it is even useful at all. A western blot analysis was performed for MAP kinase signaling proteins, phospho p38, phospho JNK and phospho ERK in KMCH cells with and without NABR01 treatment.
The cytotoxic effect of NABR01 in addition to downregulation of Bcl2, may be attributed to an increase in proapoptotic protein Bim which is specifically cleaved to generate the cytotoxic Bims-form in KMCH cells are treated with NABR01. Caspase-9 is cleaved in cells treated with NABR01 indicating an upstream activation of Caspase 3. […] Accordingly, not only does the ursodiol component of NABR01 assist in targeting, but ursodiol also increases efficacy of the compound when introduced directly to the relevant cells, a wholly unexpected effect.
The activity of pro-inflammatory signaling pathway protein phospho STAT may also increase in NABR01 treated cells.

GS-Li013 cells = experiment: CCK-8 cell viability assay in GS-Li013 cells; assay type: cell-based; conditions: GS-Li013 (GS-cell lines), 24 hour treatment
Source text: (§1) FIG. 2 is a set of graphs showing the ability of various molecules to kill KMCH and GS-Li013 cells, which are cholangiocarcinoma cells. The data presented in FIG. 2 is based on in-vtro studies. The y-axis of each graph represents the Cell viability percentage 205 of KMCH and GS-Li013 cells. The x-axis of each graph represents the Log[C]210. [C] refers to the concentration of the molecule tested in uM. IC50 commonly refers to the half maximal inhibitory concentration, and is used to numerically represent the efficacy of various molecules to be effective in their respective tasks. In this case, IC50 means the concentration at which half of the target cells are no longer viable. […] The unit uM is used to represent the IC50 value. uM is the same as micro molar concentration, which is 10^−6 moles/liter, a common concentration unit.
(§2) To obtain the data in FIG. 2, Cell Counting Kit-8 (CCK-8) was used. CCK-8 is commercially available from Dojindo Molecular Technologies, Inc. CCK-8 allows sensitive colorimetric assays for the determination of cell viability in cell proliferation and cytotoxicity assays. Dojindo's highly water-soluble tetrazolium salt, used in CCK-8, is reduced by dehydrogenase activities in cells to give a yellow-color formazan dye, which is soluble in the tissue culture media. The amount of the formazan dye, generated by the activities of dehydrogenases in cells, is directly proportional to the number of living cells. The detection sensitivity of CCK-8 may be higher than the other tetrazolium salts such as MTT, XTT, MTS or WST-1. Cancerous cells in a cell culture were exposed to the either irinotecan, ursodeoxycholic acid, berberine, or NABR01, and the results were recorded. Various concentrations of each molecule were used, resulting in different amount of cell viability. Cell viability was measured according to the procedures of CCK-8, namely higher cell counts lead to higher absorption measurements, which would mean lower drug efficacy.

KMCH cells [2] = experiment: CCK-8 cell viability assay in KMCH cells; assay type: cell-based
Source text: as §1, §2
DLD1 refers to Dukes' type C, colorectal adenocarcinoma, and NABR01 has an IC50 of 5.0 uM for DLD1. HCT2 refers to a hamster lymphoid cell line, and NABR01 has an IC50 of 6.0 uM for HCT2. […] NABR01 has an unexpectedly effective IC50 of less than 10 uM for the cell lines described above, and the related cancers.

DLD1 = experiment: CCK-8 cell viability assay, DLD1; assay type: cell-based; conditions: Homo sapiens, DLD-1, DLD1, 48 hour period
Source text: as §2
(§3) DLD1 refers to Dukes' type C, colorectal adenocarcinoma, and NABR01 has an IC50 of 5.0 uM for DLD1. HCT2 refers to a hamster lymphoid cell line, and NABR01 has an IC50 of 6.0 uM for HCT2. […]

SJSA = experiment: CCK-8 cell viability assay, SJSA; assay type: cell-based; conditions: 48 hour period
Source text: as §2
(§4) As shown in FIGS. 19-20, the efficacy of NABR01 can vary greatly depending on the cancerous cell line, and as a result, NABR01 may not be effective against certain cell lines. […]

MCF7 = experiment: CCK-8 cell viability assay, MCF7; assay type: cell-based; conditions: Homo sapiens, MCF7, 48 hour period
Source text: as §2, §3

MDA468 = experiment: CCK-8 cell viability assay, MDA468; assay type: cell-based; conditions: MDA468, 48 hour period
Source text: as §2, §3

HuCCT = experiment: CCK-8 cell viability assay, HuCCT; assay type: cell-based; conditions: 48 hour period
Source text: as §2, §4

HCT = experiment: CCK-8 cell viability assay, HCT; assay type: cell-based; conditions: 48 hour period
Source text: as §2, §3

PANC1 = experiment: CCK-8 cell viability assay, PANC1; assay type: cell-based; conditions: Homo sapiens, PANC-1, PANC1, 48 hour period
Source text: as §2, §3

HT29 = experiment: CCK-8 cell viability assay, HT29; assay type: cell-based; conditions: Homo sapiens, HT-29, HT29, 48 hour period
Source text: as §2, §3

KMCH tumor = experiment: Tumor xenograft study in mice; assay type: in vivo
Source text: Tumor xenografts studies in mice indicate that the tumor growth corresponding to weight and volume in NABR01 treated group of mice was reduced by approximately 45% in size when treated for 21 days.

MDA231 = experiment: CCK-8 cell viability assay, MDA231; assay type: cell-based; conditions: Homo sapiens, MDA-MB-231, MDA231, 48 hour period
Source text: as §2, §4

HCT2 = experiment: CCK-8 cell viability assay, HCT2; assay type: cell-based, hamster; conditions: Mesocricetus auratus, HCT2, 48 hour period
Source text: as §2, §3

HepG2 = experiment: CCK-8 cell viability assay, HepG2; assay type: cell-based; conditions: Homo sapiens, HepG2, 48 hour period
Source text: as §2, §3

U2OS = experiment: CCK-8 cell viability assay, U2OS; assay type: cell-based; conditions: Homo sapiens, 48 hour period
Source text: as §2, §3

CCA = experiment: CCK-8 cell viability assay, CCA; assay type: cell-based; conditions: 48 hour period
Source text: as §2, §3

PC3 = experiment: CCK-8 cell viability assay, PC3; assay type: cell-based; conditions: Homo sapiens, PC-3, PC3, 48 hour period
Source text: as §2, §4

[3] = KMCH cells, 24 hour treatment, read-out: IC50 (cell viability)

COc1ccc2cc3[n+](cc2c1OC)CCc1cc2c(cc1-3)OCO2 [berberine]
phospho ERK (cell survival pathway), western blot (KMCH cells [1]; 10 uM): not observed
phospho JNK (cell death signaling pathway), western blot (KMCH cells [1]; 10 uM): not observed
phospho p38 (cell death signaling pathway), western blot (KMCH cells [1]; 10 uM): not observed
cytochrome C release from mitochondria, western blot (KMCH cells [1]): did not result in the release
IC50 (GS-Li013 cells): 200 µM
IC50 (KMCH cells [2]; [3]): 200 µM

CCc1c2c(nc3ccc(OC(=O)N4CCC(N5CCCCC5)CC4)cc13)-c1cc3c(c(=O)n1C2)COC(=O)[C@]3(O)CC [irinotecan]
IC50 (GS-Li013 cells): 90 µM
IC50 (KMCH cells [2]; [3]): 95 µM

COc1ccc2cc3[n+](cc2c1OCCCCCCNC(=O)CC[C@@H](C)[C@H]1CC[C@H]2[C@@H]4[C@@H](O)CC5CC(O)CC[C@]5(C)[C@H]4CC[C@]12C)CCc1cc2c(cc1-3)OCO2 (stereo in doubt) [NABR01, berberine-ursodeoxycholic acid conjugate]
IC50 (DLD1): 5 µM
IC50 (SJSA): 14 µM
IC50 (MCF7): 9.2 µM
IC50 (MDA468): 2.1 µM
IC50 (HuCCT): 15 µM
IC50 (HCT): 3.9 µM
IC50 (PANC1): 3.3 µM
phospho PTEN, western blot (KMCH cells [1]): remain unchanged
pro-apoptotic protein Noxa (KMCH cells [1]): increase
PARP activation by cleavage, western blot (KMCH cells [1]; 10 uM): activated
anti-apoptotic protein Bcl2, western blot (KMCH cells [1]; 10 uM): down regulated
phospho ERK (cell survival pathway), western blot (KMCH cells [1]; 10 uM): downregulated
phospho JNK (cell death signaling pathway), western blot (KMCH cells [1]; 10 uM): increased
phospho p38 (cell death signaling pathway), western blot (KMCH cells [1]; 10 uM): increased
AKT signaling pathway, western blot (KMCH cells [1]; 10 uM, 16 hours): downregulated
phosphor-AKT pathway, western blot (KMCH cells [1]; 10 uM, 16 hours): downregulated
proapoptotic protein Bim (cleaved to Bims-form), western blot (KMCH cells [1]; 10 uM, 24 hours): increase
Caspase-9 cleavage, western blot (KMCH cells [1]; 10 uM, 48 hours): cleaved
Phospho CKH2 (DNA repair), western blot (KMCH cells [1]; 16 hours): increased activity
Total P53 levels, western blot (KMCH cells [1]; 16 hours): downregulated
phospho STAT (pro-inflammatory signaling), western blot (KMCH cells [1]; 16 hours): increase
phosphoATM (DNA repair), western blot (KMCH cells [1]; 16 hours): increased activity
phospho 4EBP1, western blot (KMCH cells [1]; 24 hours): not significantly altered
phospho EF2k, western blot (KMCH cells [1]; 24 hours): not significantly altered
phospho eIF4E, western blot (KMCH cells [1]; 24 hours): not significantly altered
phospho p70S6 kinase, western blot (KMCH cells [1]; 24 hours): not significantly altered
phosphor mTOR 52481 pathway, western blot (KMCH cells [1]; 24 hours): downregulated
cytochrome C release from mitochondria, western blot (KMCH cells [1]): released from mitochondria
Bcl2 protein levels (KMCH cells [1]; by 24hrs of exposure): significant decrease
IC50 (HT29): 5.2 µM
tumor weight inhibition (KMCH tumor; mice with a KMCH tumor, 4 mg/kg): 43.46%
tumor growth (weight and volume) reduction in size (KMCH tumor; mice, tumor xenografts, treated for 21 days): approximately 45%
IC50 (MDA231): 36 µM
IC50 (HCT2): 6 µM
IC50 (HepG2): 5.4 µM
IC50 (GS-Li013 cells): 15 µM
IC50 (U2OS): 4.3 µM
IC50 (CCA): 4.8 µM
IC50 (KMCH cells [2]; [3]): 15 µM
IC50 (KMCH cells [2]; KMCH, 48 hour period, read-out: IC50): 2.9 µM
IC50 (PC3): 16 µM

C[C@H](CCC(=O)O)[C@H]1CC[C@H]2[C@@H]3[C@@H](O)C[C@@H]4C[C@H](O)CC[C@]4(C)[C@H]3CC[C@]12C [ursodeoxycholic acid]
IC50 (cell viability) (GS-Li013 cells): no IC50
IC50 (cell viability) (KMCH cells [2]; KMCH cells, 24 hour treatment): no IC50
